Drawing on PubChem BioAssay AID330 (DTP/NCI, 2004), this text covers T/C for 27 compounds.

In this assay the test system is P388 leukemia ip, CD2F1 mice, survival T/C. Put plainly: NCI In Vivo Anticancer Drug Screen. Data for tumor model P388 Leukemia (intraperitoneal) in CD2F1 (CDF1) mice. The note with it: endpoint: median survival time, higher = longer survival. Put shortly: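 Mice carrying the transplanted tumor received test compound or vehicle. Survival was recorded in each group, and the value is the treated-group measurement divided by that of the vehicle-treated control group.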

[1] abbreviates: dose: 50.0 mg/kg/injection, schedule: Q04DX003 (ip), vehicle: saline.
Setting [2] is: dose: 100.0 mg/kg/injection, schedule: Q04DX002 (ip), vehicle: saline with Tween-80.
[3] abbreviates: dose: 200.0 mg/kg/injection, schedule: Q04DX002 (ip), vehicle: saline with Tween-80.
[4] abbreviates: dose: 6.25 mg/kg/injection, schedule: Q01DX005 (ip), vehicle: Klucel (hydroxypropylcellulose) (HPC).
[5] abbreviates: dose: 12.5 mg/kg/injection, schedule: Q01DX005 (ip), vehicle: Klucel (hydroxypropylcellulose) (HPC).
[6] abbreviates: dose: 50.0 mg/kg/injection, schedule: Q01DX005 (ip), vehicle: Klucel (hydroxypropylcellulose) (HPC).
The mark [7] stands for this setting: dose: 100.0 mg/kg/injection, schedule: Q01DX005 (ip), vehicle: Klucel (hydroxypropylcellulose) (HPC).
[8] abbreviates: dose: 200.0 mg/kg/injection, schedule: Q01DX005 (ip), vehicle: Klucel (hydroxypropylcellulose) (HPC).
The mark [9] stands for this setting: dose: 50.0 mg/kg/injection, schedule: Q01DX005 (ip), vehicle: saline with Tween-80.
Setting [10] is: dose: 100.0 mg/kg/injection, schedule: Q01DX005 (ip), vehicle: saline with Tween-80.
Setting [11] is: dose: 200.0 mg/kg/injection, schedule: Q01DX005 (ip), vehicle: saline with Tween-80.
Where [12] appears, read: dose: 60.0 mg/kg/injection, schedule: Q01DX005 (ip), vehicle: saline with Tween-80.
Setting [13] is: dose: 120.0 mg/kg/injection, schedule: Q01DX005 (ip), vehicle: saline with Tween-80.
Setting [14] is: dose: 25.0 mg/kg/injection, schedule: Q01DX009 (ip), vehicle: saline with Tween-80.
Setting [15] is: dose: 50.0 mg/kg/injection, schedule: Q01DX009 (ip), vehicle: saline with Tween-80.
[16] abbreviates: dose: 100.0 mg/kg/injection, schedule: Q01DX009 (ip), vehicle: saline with Tween-80.
Where [17] appears, read: dose: 25.0 mg/kg/injection, schedule: Q01DX005 (ip), vehicle: saline with Tween-80.
Where [18] appears, read: dose: 240.0 mg/kg/injection, schedule: Q01DX005 (ip), vehicle: saline with Tween-80.

“And” between values parts separate entries of the source, which are not always exact repeats. Equal values may be shown once. Toxic doses and inconclusive results are not listed. Peptide text beside a SMILES is read from it. * marks the point of attachment. Cbz = O=C(OCc1ccccc1)*

On to `CC(=O)N1CCCC1C(=O)O` (centres undefined), for which the T/C was 102 % of control (dose: 25.0 mg/kg/injection, schedule: Q04DX003 (ip), vehicle: saline); 112 % of control under setting [1]; 105 % of control and 87 % of control (dose: 100.0 mg/kg/injection, schedule: Q04DX003 (ip), vehicle: saline); 101 % of control (dose: 400.0 mg/kg/injection, schedule: Q04DX003 (ip), vehicle: saline).

For the compound `COC1(OC)C2C(Br)=C(Br)C1C1CCC/C=C\CC12` (centres undefined), the T/C runs as follows: under setting [2], 103 % of control; under setting [3], 103 % of control; (dose: 400.0 mg/kg/injection, schedule: Q04DX002 (ip), vehicle: saline with Tween-80) 109 % of control.

In the case of `COC(=O)C/C(=C\c1cn(C(C)=O)c2ccccc12)[N+](=O)[O-]`, the T/C under setting [4] was 89 % of control; the T/C under setting [5] was 98 % of control; the T/C (dose: 25.0 mg/kg/injection, schedule: Q01DX005 (ip), vehicle: Klucel (hydroxypropylcellulose) (HPC)) is 91 % of control.

Take `CN(C)c1nnnn1Cc1ccccc1`: the T/C is 97 % of control under setting [6], 97 % of control under setting [7] and 106 % of control under setting [8].

`CC1=CC2N(C=C1)C(c1cccc([N+](=O)[O-])c1)=NON2c1cc(C)ccn1` (centres undefined): the T/C reads like this: under setting [9], 91 % of control; under setting [10], 87 % of control and 89 % of control; under setting [11], 87 % of control and 90 % of control.

As to `CC1(C)N=C(N)N=C(N)N1c1ccc(OCCNC(=O)Nc2ccc(S(=O)(=O)F)cc2)c(Cl)c1`, the T/C under setting [1] was 120 % of control.

On to `NC(N)=NCCCCCC(=O)O`, for which the T/C (dose: 50.0 mg/kg/injection, schedule: Q01DX009 (ip), vehicle: saline) is 100 % of control and the T/C (dose: 100.0 mg/kg/injection, schedule: Q01DX009 (ip), vehicle: saline) is 109 % of control.

In the case of `CCOC(=O)c1c(C)[nH]c(-c2ccccc2)c1NS(=O)(=O)c1ccc(N)cc1`, the T/C reads like this: under setting [12], 93 % of control; under setting [13], 94 % of control.

`O=C(O)c1ccccc1C(c1ccccc1)c1ccccc1`: the T/C under setting [14] is 100 % of control, the T/C under setting [15] is 100 % of control and the T/C under setting [16] is 100 % of control.

Regarding `CCOC(=O)C[P+](c1ccccc1)(c1ccccc1)c1ccccc1`, the T/C (dose: 3.3 mg/kg/injection, schedule: Q01DX009 (ip), vehicle: saline sonified) was 95 % of control; the T/C (dose: 6.25 mg/kg/injection, schedule: Q01DX009 (ip), vehicle: saline sonified) is 90 % of control; the T/C (dose: 12.5 mg/kg/injection, schedule: Q01DX009 (ip), vehicle: saline sonified) is 100 % of control; the T/C (dose: 25.0 mg/kg/injection, schedule: Q01DX009 (ip), vehicle: saline sonified) was 100 % of control.

Turning to `CN(C)C1CC2C=CC1C1C=CC21` (centres undefined), the T/C is, setting by setting: (dose: 3.13 mg/kg/injection, schedule: Q01DX009 (ip), vehicle: water) 100 % of control; (dose: 6.25 mg/kg/injection, schedule: Q01DX009 (ip), vehicle: water) 99 % of control; (dose: 12.5 mg/kg/injection, schedule: Q01DX009 (ip), vehicle: water) 100 % of control; (dose: 25.0 mg/kg/injection, schedule: Q01DX009 (ip), vehicle: water) 99 % of control; (dose: 50.0 mg/kg/injection, schedule: Q01DX009 (ip), vehicle: water) 98 % of control.

Turning to `COC(=O)C1(OC(C)=O)C(=O)NC2=C1C(=O)c1ccccc1C2=O` (centres undefined), the T/C (dose: 12.5 mg/kg/injection, schedule: Q01DX005 (ip), vehicle: saline with Tween-80) was 102 % of control; the T/C under setting [17] was 104 % of control; the T/C under setting [9] was 110 % of control and 113 % of control.

For the compound `COc1cc2c(cc1O)C(CSC)Cc1cc3c(cc1N(C)CC2)OCO3` (centres undefined), the T/C by setting is: (dose: 12.5 mg/kg/injection, schedule: Q01DX009 (ip), vehicle: saline with Tween-80) 100 % of control; under setting [14], 100 % of control; under setting [15], 102 % of control; under setting [16], 88 % of control; (dose: 200.0 mg/kg/injection, schedule: Q01DX009 (ip), vehicle: saline with Tween-80) 95 % of control.

Take `O=C1C=CC2=Cc3ccccc3CN12`: the T/C is, setting by setting: under setting [12], 100 % of control; under setting [13], 100 % of control; under setting [18], 100 % of control.

Consider `Nc1cc2nc3ccccc3nc2cc1N`, for which the T/C is, setting by setting: under setting [17], 91 % of control; under setting [9], 90 % of control.

Take `COC(=O)OCC#Cc1ccccc1`: the T/C is, setting by setting: (dose: 50.0 mg/kg/injection, schedule: Q04DX002 (ip), vehicle: saline with Tween-80) 100 % of control; under setting [2], 108 % of control; under setting [3], 112 % of control.

In the case of `CCOC(c1ccc(OC)cc1)c1cc(C(C)(C)C)cc(C(C)(C)C)c1O` (centres undefined), the T/C is, setting by setting: (dose: 50.0 mg/kg/injection, schedule: Q01DX005 (ip), vehicle: distilled water + alcohol) 103 % of control; (dose: 100.0 mg/kg/injection, schedule: Q01DX005 (ip), vehicle: distilled water + alcohol) 105 % of control; (dose: 200.0 mg/kg/injection, schedule: Q01DX005 (ip), vehicle: distilled water + alcohol) 107 % of control.

In the case of `S=c1nn[nH]c2[nH]ncc12`, the T/C is, setting by setting: (dose: 100.0 mg/kg/injection, schedule: Q01DX001 (ip), vehicle: saline with Tween-80) 94 % of control; (dose: 200.0 mg/kg/injection, schedule: Q01DX001 (ip), vehicle: saline with Tween-80) 102 % of control; (dose: 400.0 mg/kg/injection, schedule: Q01DX001 (ip), vehicle: saline with Tween-80) 108 % of control.

Consider `CC(=O)Oc1ccc2c(c1)C(=O)c1nc(C)c(C)nc1C2=O`, for which the T/C by setting is: under setting [6], 102 % of control; under setting [7], 102 % of control; under setting [8], 109 % of control.

`CSC(C(OC(C)=O)C(OC(C)=O)C(OC(C)=O)C(COC(C)=O)OC(C)=O)n1cnc2c(=S)nc[nH]c21` (centres undefined): the T/C under setting [9] was 101 % of control, the T/C under setting [10] was 92 % of control and the T/C under setting [11] is 89 % of control.

In the case of `Clc1ccc(CSc2cnnc3ccccc23)c(Cl)c1`, the T/C reads like this: (dose: 75.0 mg/kg/injection, schedule: Q01DX009 (ip), vehicle: suspension in saline) 96 % of control; (dose: 150.0 mg/kg/injection, schedule: Q01DX009 (ip), vehicle: suspension in saline) 89 % of control; (dose: 300.0 mg/kg/injection, schedule: Q01DX009 (ip), vehicle: suspension in saline) 89 % of control.

Consider `CCC(O)C1(C#Cc2ccccc2)Sc2ccccc2N1C` (centres undefined), for which the T/C reads like this: under setting [12], 107 % of control; under setting [13], 110 % of control; under setting [18], 110 % of control.

For `COc1ccc2n[se]nc2c1`, the T/C is 93 % of control under setting [12] and 93 % of control under setting [13].

`Cc1c(COC(=O)NC2CCCCC2)c(COC(=O)NC2CCCCC2)c2n1CCc1ccccc1-2`: the T/C is 178 % of control (dose: 12.5 mg/kg/injection, schedule: Q01DX009 (ip), vehicle: distilled water + Tween-80); 182 % of control (dose: 25.0 mg/kg/injection, schedule: Q01DX009 (ip), vehicle: distilled water + Tween-80); 101 % of control (dose: 50.0 mg/kg/injection, schedule: Q01DX009 (ip), vehicle: distilled water + Tween-80).

Consider `N#Cc1c(-c2ccc(Cl)cc2)cn2c1[nH]c(=O)c1c3c(sc12)CCCC3`, for which the T/C runs as follows: under setting [12], 87 % of control; under setting [13], 86 % of control.

`O=C(NC(Cc1ccccc1)C(=O)NC(CO)C(=O)O)OCc1ccccc1` (stereo not drawn) (Cbz-Phe-Ser-OH; configuration not given here): the T/C is 100 % of control under setting [9], 100 % of control under setting [10] and 98 % of control under setting [11].

On to `CN=C(c1ccc(NC(=O)c2ccc(C(=O)Nc3ccc(C(=NC)N4CCOCC4)cc3)cc2)cc1)N1CCOCC1`, for which the T/C runs as follows: under setting [4], 105 % of control; under setting [5], 101 % of control.
